# Assay results as given in ChEMBL document CHEMBL4725303, “New V1a receptor antagonist. Part 1. Synthesis and SAR development of urea derivatives” (Bioorg Med Chem Lett, 2020).
# What was measured:
# Vasopressin V1a receptor [1] = biological target: T1, Vasopressin V1a receptor (Homo sapiens, UniProt P37288); assay: Antagonist activity at human V1a receptor expressed in human 1321N1 cells assessed as decrease in Arg8-vasopressin-stimulated calcium flux by fluorometric calcium assay; assay type: functional, cell-based
# Target sequence in this assay (P37288 whole entry): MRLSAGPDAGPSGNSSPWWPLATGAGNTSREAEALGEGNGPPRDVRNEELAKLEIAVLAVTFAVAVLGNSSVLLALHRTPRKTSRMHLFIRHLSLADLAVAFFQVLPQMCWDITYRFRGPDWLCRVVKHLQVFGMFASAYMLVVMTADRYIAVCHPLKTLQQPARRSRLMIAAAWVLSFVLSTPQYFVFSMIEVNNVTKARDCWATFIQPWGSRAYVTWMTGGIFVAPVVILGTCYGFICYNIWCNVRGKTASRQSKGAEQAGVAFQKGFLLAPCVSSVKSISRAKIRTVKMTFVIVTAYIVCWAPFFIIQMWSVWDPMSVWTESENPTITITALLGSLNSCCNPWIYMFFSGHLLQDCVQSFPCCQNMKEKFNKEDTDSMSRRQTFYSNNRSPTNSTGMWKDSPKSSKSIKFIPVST
# Vasopressin V1a receptor [2] = biological target: T1, Vasopressin V1a receptor; assay: Displacement of [3H]AVP from human V1a receptor expressed in […] cells assessed as dissociation constant by radioligand binding assay; assay type: cell-based, 1321N1
# Target sequence in this assay (P37288 whole entry): as above
# [3] = Metabolic stability in Wistar rat liver microsomes assessed as intrinsic clearance at 1 uM in presence of NADPH by HPLC-UV analysis; assay type: ADME, Microsome; details: read-out: CLH
# [4] = Metabolic stability in NMRI mouse liver microsomes assessed as intrinsic clearance at 1 uM in presence of NADPH by HPLC-UV analysis; assay type: ADME, Microsome; details: read-out: CLH
# [5] = Metabolic stability in human liver microsomes assessed as intrinsic clearance at 1 uM in presence of NADPH by HPLC-UV analysis; assay type: ADME, Microsome; details: read-out: CLH
# [6] = Efflux ratio of Apparent permeability across apical to basolateral side in human Caco-2 cells at 10 uM by HPLC-UV or UHPLC-MS/MS analysis; assay type: ADME, cell-based
# [7] = Apparent permeability across apical to basolateral side in human Caco-2 cells at 10 uM by HPLC-UV or UHPLC-MS/MS analysis; assay type: ADME, cell-based
# [8] = Apparent permeability across apical to basolateral side in human Caco-2 cells at 1 uM by HPLC-UV or UHPLC-MS/MS analysis; assay type: ADME, cell-based
# Vasopressin V1a receptor [9] = biological target: T1, Vasopressin V1a receptor; assay: Antagonist activity at human V1a receptor expressed in human 1321N1 cells assessed as decrease in Arg8-vasopressin-stimulated calcium flux at 10 uM by fluorometric calcium assay relative to control; assay type: functional, cell-based
# Target sequence in this assay (P37288 whole entry, looked up): as the sequence (P37288 whole entry) above
Structure (SMILES),IC50 (Vasopressin V1a receptor [1]) [µM],Ki (Vasopressin V1a receptor [2]) [µM],other results
CN(C)CCn1cc(C(=O)N2CCC3(CC2)OCc2ccccc23)c2ccc(Cl)cc21 [RO-5028442],0.002,0.0055,microsomal CLint at 1 µM [3]: 130 µL/min/mg; microsomal CLint at 1 µM [4]: 341 µL/min/mg; microsomal CLint at 1 µM [5]: 20 µL/min/mg; efflux ratio at 10 µM [6]: 0.9; Papp A→B at 10 µM [7]: 150 nm/s
Cc1ccccc1N1CCN(C(=O)N2CCNc3cc(Cl)ccc32)CC1,0.08,0.0041,microsomal CLint at 1 µM [3]: 265 µL/min/mg; Papp A→B at 1 µM [8]: 170 nm/s; microsomal CLint at 1 µM [4]: 66 µL/min/mg; microsomal CLint at 1 µM [5]: 210 µL/min/mg
CC(=O)N1Cc2cc(Cl)ccc2N(C(=O)N2CCN(c3ccccc3C)CC2)C1,0.05,0.006,microsomal CLint at 1 µM [3]: 212 µL/min/mg; microsomal CLint at 1 µM [4]: 324 µL/min/mg; microsomal CLint at 1 µM [5]: 88 µL/min/mg; efflux ratio at 10 µM [6]: 0.7; Papp A→B at 10 µM [7]: 390 nm/s
O=C(N1CCN(c2ccccn2)CC1)N1CCNc2cc(Cl)ccc21,6.8,0.16,
Cc1ccccc1N1CCN(C(=O)N2CCNc3ccccc32)CC1,2.8,0.07,
CC(=O)N1CCN(C(=O)N2CCN(c3ccccc3C)CC2)c2ccc(F)cc21,,0.44,inhibition (Vasopressin V1a receptor [9]; filed as antagonist): 62%
Cc1ccccc1N1CCN(C(=O)N2CN(C(=O)c3ccccc3)Cc3cc(Cl)ccc32)CC1,0.035,0.003,
Cc1ccccc1C1CCN(C(=O)N2CCNc3cc(Cl)ccc32)CC1,0.38,0.003,
Cc1ccccc1N1CCN(C(=O)N2CN(C(=O)CO)Cc3cc(Cl)ccc32)CC1,0.035,0.004,
O=C(N1CCC(N2CCCCC2)CC1)N1CCNc2cc(Cl)ccc21,,,inhibition (Vasopressin V1a receptor [9]): 11%
Cc1ccccc1N1CCN(C(=O)N2CN(C(=O)C3(c4ccc(F)cc4)CC3)Cc3cc(Cl)ccc32)CC1,,0.023,
CN1CCN(C(=O)C2CCN(c3ccccn3)CC2)c2ccc(Cl)cc21,0.26,0.014,microsomal CLint at 1 µM [3]: 404 µL/min/mg; microsomal CLint at 1 µM [4]: 132 µL/min/mg; microsomal CLint at 1 µM [5]: 80 µL/min/mg; efflux ratio at 10 µM [6]: 0.7; Papp A→B at 10 µM [7]: 480 nm/s
Cc1ccccc1N1CCN(C(=O)N2CCNc3ccc(Cl)cc32)CC1,1.4,0.56,
C[C@@H]1CN(C(=O)N2CCNc3cc(Cl)ccc32)CCN1c1ccccn1,,0.31,inhibition (Vasopressin V1a receptor [9]; filed as antagonist): 57%
Cc1ccccc1N1CCN(C(=O)C2CN(C(=O)C3CCCC3)Cc3cc(Cl)ccc32)CC1 (racemic),0.035,0.006,microsomal CLint at 1 µM [3]: 179 µL/min/mg; Papp A→B at 1 µM [8]: 43 nm/s; microsomal CLint at 1 µM [4]: 341 µL/min/mg; microsomal CLint at 1 µM [5]: 188 µL/min/mg
Cc1ccccc1N1CCN(C(=O)C2CN(C(=O)C3CC3)Cc3cc(Cl)ccc32)CC1 (racemic),,0.025,
CC(=O)N1CCN(C(=O)N2CCN(c3ccccc3C)CC2)c2ccc(Cl)cc21,1.4,0.013,
Cc1ccccc1N1CCN(C(=O)N2CN(S(C)(=O)=O)Cc3cc(Cl)ccc32)CC1,0.02,0.0053,
Cc1ccccc1N1CCN(C(=O)N2CN(C(=O)C(C)C)Cc3cc(Cl)ccc32)CC1,0.011,0.0026,
C[C@H](NC(=O)[C@@H](CC(=O)N1CCC(N2CCCCC2)CC1)N1C(=O)[C@@H](N2C(=O)OC[C@@H]2c2ccccc2)[C@H]1/C=C/c1ccccc1)c1ccccc1,,,microsomal CLint at 1 µM [3]: 31 µL/min/mg; microsomal CLint at 1 µM [4]: 199 µL/min/mg; microsomal CLint at 1 µM [5]: 156 µL/min/mg; Papp A→B at 10 µM [7]: 47 nm/s

# The next lines start with results.
IC50 (Vasopressin V1a receptor [1]) [µM],Ki (Vasopressin V1a receptor [2]) [µM],Structure (SMILES),other results
0.085,0.003,Cc1ccccc1N1CCN(C(=O)N2CN(C)Cc3cc(Cl)ccc32)CC1,
0.2,0.004,Cc1ccccc1N1CCN(C(=O)N2CCCc3cc(Cl)ccc32)CC1,
0.021,0.004,"Cc1ccccc1N1CCN(C(=O)C2CN(C(=O)C3CCCCC3)Cc3cc(Cl)ccc32)CC1 (single isomer, unassigned; (+))",
0.18,0.005,Cc1ccccc1N1CCN(C(=O)C2CN(C(=O)C3CC3)Cc3cc(Cl)ccc32)CC1 (stereo in doubt; (+)-44),
0.39,0.005,Cc1ccccc1N1CCN(C(=O)N2CCCCc3cc(Cl)ccc32)CC1,
0.04,0.005,Cc1ccccc1N1CCN(C(=O)C2CN(C(=O)C3CCCCC3)Cc3cc(Cl)ccc32)CC1 (racemic),
0.055,0.002,CN1CCN(C(=O)N2CCN(c3ncccc3Cl)CC2)c2ccc(Cl)cc21,
0.011,0.001,Cc1ccccc1N1CCN(C(=O)N2CN(C(=O)C3CCCC3)Cc3cc(Cl)ccc32)CC1,
0.04,0.003,Cc1ccccc1N1CCN(C(=O)N2CNCc3cc(Cl)ccc32)CC1,
1,0.062,C[C@H]1CN(C(=O)N2CCNc3cc(Cl)ccc32)CCN1c1ccccn1,
0.45,0.002,Cc1cccnc1N1CCN(C(=O)N2CCNc3cc(Cl)ccc32)CC1,
0.28,0.04,Cc1ccccc1N1CCN(C(=O)C2CN(C(=O)C3CCCCC3)Cc3cc(Cl)ccc32)CC1 (stereo in doubt; (-)-47),
,0.08,"Cc1ccccc1N1CCN(C(=O)C2CN(C(=O)C3CC3)Cc3cc(Cl)ccc32)CC1 (single isomer, unassigned; (-))",
8.3,0.164,O=C(N1CCN(Cc2ccccc2)CC1)N1CCNc2cc(Cl)ccc21,
0.75,0.07,Cc1cccnc1N1CCN(C(=O)N2CCNc3cc(Cl)ccc32)[C@H](C)C1,
0.3,0.007,Cc1ccccc1N1CCN(C(=O)N2CCN(C)c3cc(Cl)ccc32)CC1,
0.28,0.004,O=C(N1CCC2(CC1)OCc1ccccc12)N1CCNc2cc(Cl)ccc21,
0.135,0.005,Cc1ccccc1N1CCN(C(=O)C2CN(C(=O)C(C)C)Cc3cc(Cl)ccc32)CC1 (racemic),
,0.005,Cc1ccccc1N1CCN(C(=O)N2CN(C(=O)C3CCCCC3)Cc3cc(Cl)ccc32)CC1,
0.17,0.006,O=C(N1CCN(c2ncccc2Cl)CC1)N1CCNc2cc(Cl)ccc21,
0.025,0.0023,Cc1ccccc1N1CCN(C(=O)N2C[C@H](C(=O)C3CCCC3)Cc3cc(Cl)ccc32)CC1,
0.88,0.015,Cc1ccccc1N1CCN(C(=O)N2CCc3cc(Cl)ccc32)CC1,
0.01,0.0033,Cc1ccccc1N1CCN(C(=O)N2CN(C(=O)C3CC3)Cc3cc(Cl)ccc32)CC1,
0.8,0.17,Cc1ccccc1N1CCN(C(=O)c2ccc(Cl)c(NC(=O)c3cccs3)c2)CC1,
0.0024,0.0006,Cc1ccccc1N1CCN(C(=O)N2C[C@@H](C(=O)C3CCCC3)Cc3cc(Cl)ccc32)CC1,microsomal CLint at 1 µM [3]: 170 µL/min/mg; Papp A→B at 1 µM [8]: 100 nm/s; microsomal CLint at 1 µM [4]: 235 µL/min/mg; microsomal CLint at 1 µM [5]: 72 µL/min/mg
